Test results: US9174932B2, “CaSR agonists” (AJINOMOTO CO., INC., priority 2008, dated 2015)

Legend:
human CaSR = molecular target: T1, human CaSR (Homo sapiens, UniProt P41180, E1011Q); experiment: Evaluation of CaSR agonistic activity (293E cells transfected with hCaSR, Ca2+ fluorescent indicator, FLIPR); type: cell-based; details: 293E cells expressing human CaSR; concentration giving activation rate 50%
T1 construct: expressed in transfected cells; host or cells: 293E cells (HEK293 expressing EBNA1, ATCC CRL-10852), transient transfection of hCaSR/pcDNA3.1
T1 sequence (P41180 20-1078 E1011Q): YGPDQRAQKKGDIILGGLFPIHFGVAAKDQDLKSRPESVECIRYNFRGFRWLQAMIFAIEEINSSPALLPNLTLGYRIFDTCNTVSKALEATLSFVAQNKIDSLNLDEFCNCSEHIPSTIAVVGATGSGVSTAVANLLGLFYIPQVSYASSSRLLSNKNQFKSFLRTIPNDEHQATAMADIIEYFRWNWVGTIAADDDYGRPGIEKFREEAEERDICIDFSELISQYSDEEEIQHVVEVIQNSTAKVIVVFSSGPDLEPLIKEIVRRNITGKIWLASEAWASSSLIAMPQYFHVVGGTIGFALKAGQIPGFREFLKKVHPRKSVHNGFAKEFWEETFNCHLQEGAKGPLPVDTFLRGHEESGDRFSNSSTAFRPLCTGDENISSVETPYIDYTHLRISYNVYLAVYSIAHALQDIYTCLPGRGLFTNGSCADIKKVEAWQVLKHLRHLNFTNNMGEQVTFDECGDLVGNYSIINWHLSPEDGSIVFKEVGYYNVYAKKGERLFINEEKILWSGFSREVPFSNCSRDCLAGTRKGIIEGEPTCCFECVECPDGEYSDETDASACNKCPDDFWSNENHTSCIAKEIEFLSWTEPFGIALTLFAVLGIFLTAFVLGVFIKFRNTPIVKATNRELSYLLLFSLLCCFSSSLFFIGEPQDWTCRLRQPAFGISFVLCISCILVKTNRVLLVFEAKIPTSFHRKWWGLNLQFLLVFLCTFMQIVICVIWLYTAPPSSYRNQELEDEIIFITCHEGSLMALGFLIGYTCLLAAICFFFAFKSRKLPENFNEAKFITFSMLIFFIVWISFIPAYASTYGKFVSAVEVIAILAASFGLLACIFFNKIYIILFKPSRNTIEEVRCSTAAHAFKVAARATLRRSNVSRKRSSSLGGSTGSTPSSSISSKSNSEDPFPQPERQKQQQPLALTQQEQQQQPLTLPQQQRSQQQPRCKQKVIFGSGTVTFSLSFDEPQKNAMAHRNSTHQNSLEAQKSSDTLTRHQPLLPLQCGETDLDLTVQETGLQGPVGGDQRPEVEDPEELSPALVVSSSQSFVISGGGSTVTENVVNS
Procedure: 293E cells (HEK293 cell expressing EBNA1, ATCC No. CRL-10852) were cultured in DMEM containing 10% fetal bovine serum (Dulbecco's modified Eagle medium containing […] Glucose, by NACALAI TESQUE, INC.), in the presence of 250 μg/mL of G418. The cells were spread on a petri dish of 10 cm diameter in 1.8×10^6 cells/15 mL. After leaving them in the CO2 incubator (5% CO2, 37° C.) for 24 hours, plasmid expressing human CaSR: hCaSR/pcDNA3.1 was transfected with a transfection reagent: Mirus TransIT 293 (by Takara Bio Inc.). After leaving it in the CO2 incubator for 24 hours, the cells were collected by DMEM containing 10% fetal bovine serum and seeded on poly-D-lysine coat 384 well plate (by Falcon) in 15,000 cells/well. After leaving them in the CO2 incubator for 24 hours, the medium was removed. Then, 50 μL/well of Ca^2+ fluorescent indicator: Calcium 4 Assay Kit (by Molecular Devices) that was dissolved in an assay buffer (146 mM NaCl, 5 mM KCl, 1 mM MgSO4, 1 mg/mL Glucose, 20 mM HEPES (pH 7.2), 1.5 mM CaCl2) was added thereto, and left at 37° C. for 1 hour and at room temperature for 30 minutes to absorb the fluorescent indicator. The 384 well plate was transferred to FLIPR (by Molecular Devices). Then, 12.5 μL/well of a compound that was dissolved in a 0.1% BSA containing assay buffer was added thereto, and change in fluorescence intensity was measured for 3 minutes. Meanwhile, Compound No. 20 was purchased from Bachem.
The difference between the maximum value and the minimum value (RFU(Max−Min)) of the fluorescence intensity before and after adding a compound was automatically calculated by FLIPR. RFU(Max−Min) when adding a compound in maximum concentration was defined as 100%; and RFU(Max−Min) when adding DMSO instead of the compound in the same concentration as that of the compound was defined as 0%.

rat large intestine loop = experiment: Effect of a CaSR agonist on water absorption in rat large intestine loop method (PGE2-treated); type: in vivo; details: male SD (IGS) rat large intestine loop, PGE2 i.p.; compound in Tyrode solution
Procedure: The cecum and large intestine were taken out from the abdomen of a male SD (IGS) rat under pentobarbital anesthesia, and a large intestine loop was prepared by ligating a part 5 cm just below the cecum. Immediately after preparing the loop, PGE2 (4 μg/mL/kg, SIGMA) was intraperitoneally administered. 30 minutes later, 2 mL of Tyrode solution (NaCl 136.9 mM, KCl 2.7 mM, CaCl2.2H2O 1.8 mM, MgCl2.6H2O 1.04 mM, NaH2PO4.2H2O 0.04 mM, glucose 5.55 mM, NaHCO3 11.9 mM) was poured in the prepared loop. 1 hour later, the weight of the loop, the weight thereof when the liquid was removed from the loop, and the loop area were measured to calculate the weight per unit area of the liquid that remains in the loop.
A test compound was tested by dissolving it in Tyrode solution that was adjusted to pH 6.5 to 7.5.
The remaining liquid weight per unit area (g/cm^2) was calculated by the following formula. Remaining liquid weight per unit area (g/cm^2)=(loop weight−loop weight when the liquid was removed from the loop)/loop area
Water absorption was evaluated by calculating the inhibition ratio by the following formula. Inhibition ration (%)=100−(remaining liquid weight per unit area with a drug−basic average remaining liquid weight per unit area)/(average remaining liquid weight per unit area of vehicle−basic average remaining liquid weight per unit area)×100 […]

[1] = Quantitative sensory evaluation test of kokumi-imparting activity; set-up: species or system human; details: for Intensity of kokumi After taste / Intensity of kokumi First-middle taste: score control 0, strong 3, very strong 5, n=4
Procedure: The kokumi-imparting effects can be confirmed by the method such as a gustatory test by a human being as mentioned in Examples of the present invention, but it is not limited to those.
On compounds wherein a calcium receptor activating action was found (sodium salts of Compound Nos. 1, 7 and 21), the intensity of kokumi-imparting activity was examined by a quantitative sensory evaluation test. The used compound was prepared by dissolving 525 mg of the compound No. 1 described in Synthetic Example 1 of Example I in 5 mL of distilled water, adjusting it to pH6.5 to 7 by adding 16.4 mL of 0.1M sodium hydroxide solution thereto, and freeze-drying it to obtain a sodium salt thereof. Further, the used compound was also prepared as follows. 500 mg of the compound No. 7 described in Synthetic Example 7 of Example I was suspended in 5 mL of distilled water. 1.61 mL of 1M sodium hydroxide and 0.8 mL of 2M hydrochloric acid were added thereto at 0° C. respectively to precipitate a solid substance. The precipitated solid substance was taken by filtration and dried under reduced pressure at 40° C. to obtain 426 mg of the compound No. 7. The obtained solid substance was suspended in 10 mL of distilled water. 1.2 mL of 1M sodium hydroxide was added thereto and freeze-dried to obtain a sodium salt thereof. The compound No. 21 was used in the form of a sodium salt of the compound No. 21 described in Synthetic Example 21 of Example I, which was prepared by the same method as mentioned above.
A quantitative sensory evaluation test was conducted as follows. 0.000001 to 0.1 g/dL of the compound(s) (a sodium salt of No. 1) was mixed as a sample to distilled water containing glutamic sodium (0.05 g/dL), inosine monophosphate (0.05 g/dL) and sodium chloride (0.5 g/dL). Then, the intensity of kokumi-imparting activity was examined at that time. As a reference, γ Glu-Cys-Gly and γ Glu-Val-Gly were used, each of which is a known kokumi-imparting component. As for a sample that becomes acidic to an additive-free control after dissolving the sample, it was used by being adjusted with sodium hydroxide to become within pH±0.2 to the additive-free control. As for sensory scoring, it was defined as a control: 0, strong: 3, and very strong: 5; and n=4. Meanwhile, “first-middle taste” means the taste combining first taste and middle taste. The kokumi-imparting activity was widely seen in the above addition concentrations, and the results of the representative concentrations are shown in Table 5.

In the case of `N[C@@H](CCC(=O)Nc1cccc(S(=O)(=O)O)c1)C(=O)O` [Compound No. 1, N^5-(3-sulfophenyl)-L-glutamine], the EC50 (human CaSR) is reported as 12 nM and the Water absorption (rat large intestine loop) is reported as “promoted in a dose-dependent manner”.
For `N[C@@H](CCC(=O)Nc1cc(Cl)cc(S(=O)(=O)O)c1O)C(=O)O` [Compound No. 7, N^5-(5-chloro-2-hydroxy-3-sulfophenyl)-L-glutamine], the EC50 (human CaSR) was 1.9 nM and the Water absorption (rat large intestine loop) was “promoted in a dose-dependent manner”.
For `N[C@@H](CCC(=O)Nc1cccc(S(=O)(=O)[O-])c1)C(=O)O.[Na+]` [No.1-Na salt], the “Intensity of kokumi After taste” value ([1]; Conc. 0.00001 g/dL) was 1.0, the “Intensity of kokumi First-middle taste” value ([1]; Conc. 0.00001 g/dL) was 0.7 and the “Intensity of kokumi After taste” value ([1]; Conc. 0.0001 g/dL) was 2.0. The “Intensity of kokumi First-middle taste” value ([1]; Conc. 0.0001 g/dL) was 1.8, the “Intensity of kokumi After taste” value ([1]; Conc. 0.0005 g/dL) was 3.0 and the “Intensity of kokumi First-middle taste” value ([1]; Conc. 0.0005 g/dL) was 2.6. For the same compound, the Comments ([1]; Conc. 0.001 g/dL) was “All tastes are strong, mainly”, the “Intensity of kokumi After taste” value ([1]; Conc. 0.001 g/dL) was 3.6 and the “Intensity of kokumi First-middle taste” value ([1]; Conc. 0.001 g/dL) was 3.2. For the same compound, the Comments ([1]; Conc. 0.01 g/dL) was “All tastes are strong”, the “Intensity of kokumi After taste” value ([1]; Conc. 0.01 g/dL) was 5.0 and the “Intensity of kokumi First-middle taste” value ([1]; Conc. 0.01 g/dL) was 5.0.
In the case of `N[C@@H](CCC(=O)Nc1cc(Cl)cc(S(=O)(=O)[O-])c1O)C(=O)O.[Na+]` [No.7-Na salt], the “Intensity of kokumi After taste” value ([1]; Conc. 0.00005 g/dL) is reported as 2.5, the “Intensity of kokumi First-middle taste” value ([1]; Conc. 0.00005 g/dL) is reported as 2.2 and the Comments ([1]; Conc. 0.0001 g/dL) is reported as “There is about the same thickness”. The “Intensity of kokumi After taste” value ([1]; Conc. 0.0001 g/dL) was 3.2, the “Intensity of kokumi First-middle taste” value ([1]; Conc. 0.0001 g/dL) was 2.5 and the “Intensity of kokumi After taste” value ([1]; Conc. 0.0005 g/dL) was 4.0. The “Intensity of kokumi First-middle taste” value ([1]; Conc. 0.0005 g/dL) was 3.3.
For `Cc1c(Cl)cc(NC(=O)CC[C@H](N)C(=O)O)cc1S(=O)(=O)[O-].[Na+]` [No.21-Na salt], the “Intensity of kokumi After taste” value ([1]; Conc. 0.0002 g/dL) was 2.0, the “Intensity of kokumi First-middle taste” value ([1]; Conc. 0.0002 g/dL) was 1.5 and the “Intensity of kokumi After taste” value ([1]; Conc. 0.0005 g/dL) was 3.1. The “Intensity of kokumi First-middle taste” value ([1]; Conc. 0.0005 g/dL) was 2.6, the “Intensity of kokumi After taste” value ([1]; Conc. 0.001 g/dL) was 3.7 and the “Intensity of kokumi First-middle taste” value ([1]; Conc. 0.001 g/dL) was 3.1.
With “γ Glu-Cys-Gly [γGlu-Cys-Gly, reference compound]” the Comments ([1]; Conc. 0.01 g/dL) was “Richness, thickness and continuity”, the “Intensity of kokumi After taste” value ([1]; Conc. 0.01 g/dL) was 3.0 and the “Intensity of kokumi First-middle taste” value ([1]; Conc. 0.01 g/dL) was 3.0.
In the case of “γ Glu-Val-Gly [γGlu-Val-Gly, reference compound]”, the Comments ([1]; Conc. 0.001 g/dL) is reported as “Mellowness, richness and growth”, the “Intensity of kokumi After taste” value ([1]; Conc. 0.001 g/dL) is reported as 3.0 and the “Intensity of kokumi First-middle taste” value ([1]; Conc. 0.001 g/dL) is reported as 2.5. The Comments ([1]; Conc. 0.005 g/dL) was “Mellowness, richness and growth”, the “Intensity of kokumi After taste” value ([1]; Conc. 0.005 g/dL) was 4.0 and the “Intensity of kokumi First-middle taste” value ([1]; Conc. 0.005 g/dL) was 3.5.
